# PMC10882959, “Gas-Selective Catalytic Regulation by a Newly Identified Globin-Coupled Sensor Phosphodiesterase Containing an HD-GYP Domain from the Human Pathogen Vibrio fluvialis” (Biochemistry, 2024)
# Values joined by “and” are separate entries in the source; they are usually repeats but may differ in a detail not shown here. Equal values may be shown once.
# B1: Vibrio furnissii GCS-HD-GYP (enzyme, UniProt A0A0Q2RS25 1-375, looked up)
# chain: MEVAFGSDPGNAIRRWASYLAIDQQTVDALREYYWIMERNIDEVLAFVYDHLSSCPETAQFYQNEQSIVRARGHLRDHLMLYVFRGHFGVDYYNATIRIGQTHQRLGIDFKVYSGAYCIVMSQLARVVYQSLAPNIDNIHRYMSALNRAIFLDLGLATAVYYDTACFELEELAYELNFALAKAGEFRDNETGEHIKRISRMSFELAKALGQPAHWCKMIQIASPLHDVGKIGVPDEILLKPGKLDADEWKLMQQHPAIGGDIIPDNKSELIRMARRISLTHHEKWDGSGYPAGLAGEEIPLEGRIVAICDVFDALLSTRPYKRAWSVAEVVAYLRENRAKHFDPLLLDCFLEHLDSMLHIRHQFEDAAQPETVAD
# notes: GCS-HD-GYP of Vibrio furnissii, gene AMR76_07425, UniProtKB A0A0Q2RS25; molecular mass 43.9 kDa with the C-terminal His6 tag; The synthetic, codon-optimised gene was put into pET-21a (NdeI/XhoI); also called V. furnissii GCS-HD-GYP; AMR76_07425; source: E. coli, purified; not shown: His6, C-terminal, kept
# B2: Vibrio fluvialis GCS-HD-GYP (globin-coupled sensor phosphodiesterase containing an HD-GYP domain) (enzyme, UniProt A0AAX2LUU7 1-375, looked up)
# chain: METAFSSEPESVIRRWASYLVIDQQTLNTLREFYWVMEQNIDDILSHVYAHLSSNRETAHFYQDEQSVKRAKAHQREHMMRYVFRGNFGAEYYNATNRIGKTHHKLGIDFKIYSGAYCIVLSQLAGVVYKVLAPEIGNVQRYMTALNRVIFMDMGLATSVYYDTACLELEELAHELNFALAKAGEFRDNETGEHIKRISRMSFELAKAAGQEPHWCKMIQIASPLHDVGKIGVPDDILLKPGKLDEQEWNVMQQHPAMGGVIIPDNKSELIRMARRISLTHHEKWDGSGYPAGLKGEEIPLEGRIVAICDVFDALLSTRPYKRPWSMEEVGTYLRDNRGKHFDPQLLDIFIENLANMQLIRCQFEDAVSPEIVAD
# notes: GCS-HD-GYP of Vibrio fluvialis, gene AL536_01530, UniProtKB A0A120L350; full-length protein, predicted mass 44.1 kDa with the C-terminal His6 tag; globin domain residues 1-166, HD-GYP domain residues 169-366; Synthetic, codon-optimised gene in pET-21a (NdeI/XhoI); Mostly a dimer, with a minor tetramer peak by SEC; also called V. fluvialis GCS-HD-GYP; AL536_01530; source: E. coli BL21(DE3), …
# Assays:
# [1] = biological target: T1, GCS-HD-GYP (V. fluvialis) (Vibrio fluvialis, UniProt A0AAX2LUU7); assay: HPLC hydrolysis assay, […] nm; type: biochemical; details: 1 mM MnCl2, pH 8.0, 20 °C
# T1 construct: gene AL536_01530; full length, C-terminal His6 tag kept, pET-21a (codon-optimized), E. coli BL21(DE3), heme-reconstituted in crude extract; mainly dimer (85 kDa by SEC)
# V. furnissii GCS-HD-GYP = biological target: T2, V. furnissii GCS-HD-GYP (Vibrio furnissii, UniProt A0A0Q2RS25); assay: HPLC hydrolysis assay, […] nm; type: biochemical; details: 1 mM MnCl2, pH 8.0, 20 °C; Fe(III) heme form; optimal conditions of V. fluvialis enzyme
# T2 construct: gene AMR76_07425; full length, C-terminal His6 tag kept, pET-21a (codon-optimized), E. coli host; dimer
# [2] = biological target: the molecule itself; assay: SEC; Superdex 200 Increase 10/300 GL, 50 mM Tris-HCl pH 8.0, 100 mM NaCl; 100 uL of 20 uM protein injected; mass estimated from standard proteins
molecule,measurement,setting,value
Nc1nc2c(ncn2[C@@H]2O[C@@H]3COP(=O)(O)O[C@H]4[C@@H](O)[C@H](n5cnc6c(=O)[nH]c(N)nc65)O[C@@H]4COP(=O)(O)O[C@H]3[C@H]2O)c(=O)[nH]1 [c-di-GMP],"HPLC hydrolysis assay, 254 nm","[1]; 0.1 mM c-di-GMP, Fe(III) or Fe(II)-O2 heme form",The Fe(III) and Fe(II)-O2 complexes of GCS-HD-GYP catalyzed the hydrolysis of c-di-GMP to form pGpG
same,"HPLC hydrolysis assay, 254 nm",V. furnissii GCS-HD-GYP,the specific activity for the PDE activity of the Fe(III) complex of V. furnissii GCS-HD-GYP
Nc1nc2c(ncn2[C@@H]2O[C@H](COP(=O)(O)O[C@H]3[C@@H](O)[C@H](n4cnc5c(=O)[nH]c(N)nc54)O[C@@H]3COP(=O)(O)O)[C@@H](O)[C@H]2O)c(=O)[nH]1 [pGpG],"HPLC hydrolysis assay, 254 nm","[1]; product of c-di-GMP hydrolysis, Fe(III) heme form","conversion of c-di-GMP to a new compound, namely its linearized product pGpG"
B1,stoichiometry N,[2],2
B2,stoichiometry N,[2],2 and 4
